In brackets after ≈: the same amount, converted by molar mass. Several values for one entry are separate records, joined by “and”; a condition that tells them apart may be missing. Identical values can stand only once. Like-named read-outs stand apart in the source and are kept apart here.
Legend:
[1] = system: SARS-CoV-2 USA_WA1/2020 strain
[2] = system: SARS-CoV-2 USA_WA1/2020 strain; remark: listed apart in the source
[3] = system: normal, human-derived tracheal/bronchial epithelial (TBE) cells; test: Toxicity of test compounds in the TBE tissue model (Example 1); details: any of the test compound concentrations
Method: (§1) Cell Culture: The EpiAirway™ Model consists of normal, human-derived tracheal/bronchial epithelial (TBE) cells which have been cultured to form a multi layered, highly differentiated model which closely resembles the epithelial tissue of the respiratory tract.
(§2) The TBE cells were grown on 6 mm mesh disks in transwell inserts. […] The cells have unique properties in forming layers, the apical side of which is exposed only to air and that creates a mucin layer. Upon arrival, the cell transwell inserts were immediately transferred to individual wells of a 6-well plate according to manufacturer's instructions, and 1 mL of MatTek's proprietary culture medium (AIR-100-MM) was added to the basolateral side, whereas the apical side was exposed to a humidified 5% CO2 environment. The TBE cells were cultured at 37° C. for one day before the start of the experiment. After the 24 h equilibration period, the mucin layer, secreted from the apical side of the cells, was removed by washing with 400 μL pre-warmed 30 mM HEPES buffered saline solution 3X. Culture medium was replenished following the wash steps.
(§3) Experimental design: Each 2× compound treatment (120 L) and virus (120 μL) was applied to the apical side, and 1× compound treatment only was applied to the basal side (1 mL), for a 2 h incubation. […]

[4] = system: SARS-CoV-2 (strain USA-WA1/2020); test: microbe, parasite or virus in culture; type: cell-based, human; details: Severe acute respiratory syndrome coronavirus 2, 120 h
[5] = system: Respiratory syncytial virus (RSV-A2); details: for SI = CC50/EC90: RSV-A2
[6] = in vitro; details: human
Method: (§4) The amount of formazan is directly proportional to the number of living cells and the resulting colored solution is quantified by measuring absorbance at 450 nanometers using a multi-well spectrophotometer. Drug concentrations of 2 mg/ml and 1 mg/ml were tested in duplicate wells, and a drug concentration of 0.5 mg/ml was tested in singlet wells. On day 3 (H1N1) or day 6 (RSV), the apical side was washed one time with 400 μL pre-warmed PBS. The CCK-8 solution was added (200 L) to the apical side and incubated at 37° C. for 2 hours. The formazan (100 l) was placed into a 96-well plate and the 450 nm absorbance was recorded. Percent toxicity values were calculated as a percentage of the cell control test wells (no drug treatment) and reported as the 50% cell cytotoxic concentration (CC50) of compound (no virus). Tissues were also observed via microscopy to assess cytotoxicity.

[7] = system: Influenza A/California/7/2009 (H1N1); test: microbe, parasite or virus in culture; details: H1N1, in Homo sapiens, read-out: EC90 (VYR 90% effective concentration)
[8] = system: Respiratory syncytial virus (RSV-A2); test: microbe, parasite or virus in culture; details: human respiratory syncytial virus, read-out: EC90 (VYR 90% effective concentration)
[9] = system: Influenza A/California/7/2009 (H1N1); details: fresh drug on days 1 and 2; for Log10 CCID50 virus per 0.2 mL: H1N1, day 3
[10] = system: normal, human-derived tracheal/bronchial epithelial (TBE) cells
Method: as §1, §2, §3

[11] = system: SARS-CoV-2 USA_WA1/2020 strain; details: hamster, in vivo
[12] = system: normal, human-derived tracheal/bronchial epithelial (TBE) cells; remark: listed apart in the source
Method: as §4

[13] = 500 mg/kg/d b.i.d. PO, individual animals
[14] = 200 mg/kg/d b.i.d. PO, individual animals

CC(C)C(=O)OC[C@H]1O[C@@H](n2ccc(NO)nc2=O)[C@H](O)[C@@H]1O [EIDD-2801]
reduction in lung virus titers, day 3 post-infection ([1]; 500 mg/kg/d PO): one
effect on nasal tissue virus titers ([1]; 500 mg/kg/d PO, FIG. 21, once daily comparison): did not significantly reduce
effect on lung weights ([1]; 500 mg/kg/d PO, FIG. 22): did not significantly reduce
effect on nasal tissue virus titers, day 3 post-infection ([1]; 500 mg/kg/d PO, FIG. 25, twice daily comparison, P<0.01): significantly reduced
effect on lung weights, Day 6 ([1]; 500 mg/kg/d PO, FIG. 26): significantly affected
effect on lung virus titers, day 3 post-infection ([1]; 500 mg/kg/d PO, P<0.01 vs placebo): significantly reduced
Virus Titer, Lung tissue, Day 6 [1, 13]: <0.7 CCID50/mL (Log10)
Virus Titer, Nasal tissue, Day 6 [1, 13]: <0.7 CCID50/mL (Log10) (4×) and 1.7 CCID50/mL (Log10)
effect on lung weights ([2]; 200 mg/kg/d PO): not significantly affected
effect on weight loss (percent initial body weight) ([2]; 200 mg/kg/d PO, P<0.01 vs placebo): prevented weight loss
effect on oropharyngeal swab virus titers ([2]; 200 mg/kg/d PO, any day post-infection): did not reduce
effect on lung virus titers ([2]; 200 mg/kg/d PO, day 6 post-infection, P<0.0001 vs placebo): reduced lung virus titers
effect on nasal tissue virus titers ([2]; 200 mg/kg/d PO, vs placebo): did not significantly reduce
Oropharyngeal swab Virus Titer, Day Post-Infection 5 [2, 14]: 2.0 CCID50/mL (Log10) and <0.7 CCID50/mL (Log10) (3×) and 1.7 CCID50/mL (Log10)
Oropharyngeal swab Virus Titer, Day Post-Infection 6 [2, 14]: <0.7 CCID50/mL (Log10)
Virus Titer, Lung tissue, Day 6 [2, 14]: <0.7 CCID50/mL (Log10)

CO[Si](CCCN(C)[N+]([O-])=NO)(OC)OC [MAP3-NONOate, N, N-methylaminopropyl diazeniumdiolate trimethoxysilane]
toxicity [3]: No toxicity was observed

CCC(CC)COC(=O)[C@H](C)N[P@](=O)(OC[C@H]1O[C@@](C#N)(c2ccc3c(N)ncnn23)[C@H](O)[C@@H]1O)Oc1ccccc1 [Remdesivir]
EC90 ([4]; read-out: EC90 (Titer 1)): 0.0065 µg/mL (≈ 0.0108 µM)
EC90 ([4]; read-out: EC90 (Titer Avg.)): 0.0065 µg/mL (≈ 0.0108 µM)

NC(=O)c1ncn([C@@H]2O[C@H](CO)[C@@H](O)[C@H]2O)n1 [Ribavirin]
EC90 (VYR 90% effective concentration) [5]: 4.6 µg/mL (≈ 18.8 µM)
SI = CC50/EC90 ([5]; fresh drug on days 1, 2, and 5): >19.54
SI = CC50/EC90 ([5]; fresh drug on days 1-5): >21.7
CC50 [6]: > 100 µg/mL
CC50 at 6 days [6]: > 100 µg/mL
EC90 [7]: 1.89 µg/mL (≈ 7.74 µM)
EC90 [8]: 5.12 µg/mL (≈ 21 µM)
Log10 CCID50 virus per 0.2 mL ([9]; concentration 1 μg/ml): 6.50 Log10 CCID50 virus per 0.2 mL
Log10 CCID50 virus per 0.2 mL ([9]; concentration 10 μg/ml): 4.00 Log10 CCID50 virus per 0.2 mL
Log10 CCID50 virus per 0.2 mL ([9]; concentration 100 μg/ml): 2.67 Log10 CCID50 virus per 0.2 mL
SI = CC50/EC90 ([9]; H1N1): >52.9

berdazimer sodium
deaths ([1]; hamster, in vivo): two of the ten animals
adverse events ([2]; hamster, in vivo, 2 mg/kg/day): No adverse events were observed
toxicity [10]: No toxicity was observed
premature deaths [11]: no premature deaths were observed
cytotoxicity, tissues observed under the microscope [12]: no overt cytotoxicity
